{"source": "patent US10494378B2", "about": "“Fused ring pyrimidine compound, intermediate, and preparation method, composition and use thereof” (GUANGZHOU MAXINOVEL PHARMACEUTICALS CO., LTD., priority 2015, dated 2019)", "format_in_all_cases": "biochemical", "key": {"FGFR1 kinase": {"target": "T1, FGFR1 kinase (Homo sapiens, UniProt P11362)", "T1 construct": "purchased Carna 08-133", "T1 sequence (P11362 22-822)": "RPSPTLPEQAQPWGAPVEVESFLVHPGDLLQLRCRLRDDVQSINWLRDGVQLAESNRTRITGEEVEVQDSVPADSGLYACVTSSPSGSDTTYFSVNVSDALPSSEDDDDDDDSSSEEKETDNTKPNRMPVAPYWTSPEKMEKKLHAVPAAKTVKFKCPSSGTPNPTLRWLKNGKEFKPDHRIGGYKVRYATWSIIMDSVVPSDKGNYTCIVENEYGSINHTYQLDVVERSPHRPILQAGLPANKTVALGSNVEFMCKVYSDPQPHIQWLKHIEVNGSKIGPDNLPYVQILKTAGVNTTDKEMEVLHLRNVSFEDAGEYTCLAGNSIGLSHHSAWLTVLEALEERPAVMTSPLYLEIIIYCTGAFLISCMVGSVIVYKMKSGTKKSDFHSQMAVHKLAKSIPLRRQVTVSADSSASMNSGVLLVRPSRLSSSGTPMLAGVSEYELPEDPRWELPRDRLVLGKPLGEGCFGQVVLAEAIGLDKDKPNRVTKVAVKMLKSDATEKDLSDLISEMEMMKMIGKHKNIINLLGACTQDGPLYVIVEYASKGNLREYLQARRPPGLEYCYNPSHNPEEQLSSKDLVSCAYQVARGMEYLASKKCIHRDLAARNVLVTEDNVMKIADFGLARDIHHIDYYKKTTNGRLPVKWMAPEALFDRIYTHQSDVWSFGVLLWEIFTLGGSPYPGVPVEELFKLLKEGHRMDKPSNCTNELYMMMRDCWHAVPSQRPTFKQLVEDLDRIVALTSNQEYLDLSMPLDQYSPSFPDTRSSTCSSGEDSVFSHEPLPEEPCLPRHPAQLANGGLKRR", "experiment": "IC50 evaluation assay of FGFR1 kinase inhibition (Caliper)", "conditions": "28° C.; average of two tests; read-out: IC50 (nM) inhibiting FGFR 1 kinase", "procedure": "(§1) 1. The compound was dissolved in 100% DMSO, diluted into solutions with appropriate concentration gradients with water according to experimental requirement, and added to a 96-well plate.\n2. FGFR1 kinase (Carna, Cat. No. 08-133, Lot. No. 09CBS-0989) and FGFR2 kinase (Carna, Cat. No. 08-134, Lot. No. 07CBS-2468), JAK3 kinase (Carna, Cat. No. 08-135, Lot. No. 06CBS-3177) were diluted to the optimum concentration with the following buffer solution: 50 mM HEPES, pH 7.5, 0.0015% Brij-35, 2 mM DTT. Transfer to the 96-well plate and incubate with the compound at 28° C. for a period of time.\n(§2) 3. The buffer solution (100 mM HEPES, pH 7.5, 0.0015% Brij-35, 0.2% Coating Reagent and […]) was added to terminate the reaction.\n(§3) 4. The conversion rate was read with Caliper Reader. The inhibition rate was calculated as the average of two tests."}, "FLT3 kinase (FLT3-WT)": {"target": "T2, FLT3 kinase (FLT3-WT) (Homo sapiens, UniProt P36888)", "T2 construct": "purchased Carna 08-154", "T2 sequence (P36888 27-993)": "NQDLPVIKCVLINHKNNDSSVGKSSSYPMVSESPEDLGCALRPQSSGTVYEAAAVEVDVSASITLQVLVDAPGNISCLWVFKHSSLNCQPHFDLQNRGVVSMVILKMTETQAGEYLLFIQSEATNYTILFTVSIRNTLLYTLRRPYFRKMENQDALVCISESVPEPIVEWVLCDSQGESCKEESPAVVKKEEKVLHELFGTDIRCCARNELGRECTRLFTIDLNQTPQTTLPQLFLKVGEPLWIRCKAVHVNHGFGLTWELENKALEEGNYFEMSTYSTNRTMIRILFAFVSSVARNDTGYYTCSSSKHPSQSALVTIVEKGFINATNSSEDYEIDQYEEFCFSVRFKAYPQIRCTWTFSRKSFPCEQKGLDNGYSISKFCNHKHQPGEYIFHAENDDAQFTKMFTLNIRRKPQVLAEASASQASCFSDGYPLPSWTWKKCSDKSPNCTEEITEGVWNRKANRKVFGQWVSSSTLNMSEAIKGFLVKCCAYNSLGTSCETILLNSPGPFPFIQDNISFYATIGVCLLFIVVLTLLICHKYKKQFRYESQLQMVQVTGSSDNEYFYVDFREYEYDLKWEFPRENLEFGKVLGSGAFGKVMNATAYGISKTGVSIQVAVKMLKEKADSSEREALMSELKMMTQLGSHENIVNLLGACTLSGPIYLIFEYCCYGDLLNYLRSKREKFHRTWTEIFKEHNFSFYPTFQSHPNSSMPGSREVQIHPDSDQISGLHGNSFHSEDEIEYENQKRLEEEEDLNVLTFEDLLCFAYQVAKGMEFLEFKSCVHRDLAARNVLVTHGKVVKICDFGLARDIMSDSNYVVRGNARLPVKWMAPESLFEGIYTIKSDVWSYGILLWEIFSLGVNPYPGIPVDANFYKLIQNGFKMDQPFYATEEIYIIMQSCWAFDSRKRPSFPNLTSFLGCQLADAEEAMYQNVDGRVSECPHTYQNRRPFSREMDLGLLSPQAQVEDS", "experiment": "IC50 evaluation assay of FLT3 kinase inhibition (Caliper)", "conditions": "28° C.; average of two tests; read-out: IC50 (nM) inhibiting FLT3-WT kinase", "procedure": "as §1\n2. FLT3 kinase (Carna, Cat. No. 08-154, Lot. No. 07CBS-2350), FLT3-ITD kinase (Invitrogen, Cat. No. PV6191, Lot. No. 1753453) and FLT3-D835Y kinase (Invitrogen, Cat. No. PR7450A, Lot. No. 1629729C) were diluted to the optimum concentration with the following buffer solution: 50 mM HEPES, pH 7.5, 0.0015% Brij-35, 10 mM MgCl2, 2 mM DTT. Transfer to the 96-well plate and incubate with the compound at 28° C. for a period of time.\nas §2, §3"}, "JAK1 kinase": {"target": "T3, JAK1 kinase (Homo sapiens, UniProt P23458)", "T3 construct": "purchased Carna 08-144", "T3 sequence (P23458 whole entry)": "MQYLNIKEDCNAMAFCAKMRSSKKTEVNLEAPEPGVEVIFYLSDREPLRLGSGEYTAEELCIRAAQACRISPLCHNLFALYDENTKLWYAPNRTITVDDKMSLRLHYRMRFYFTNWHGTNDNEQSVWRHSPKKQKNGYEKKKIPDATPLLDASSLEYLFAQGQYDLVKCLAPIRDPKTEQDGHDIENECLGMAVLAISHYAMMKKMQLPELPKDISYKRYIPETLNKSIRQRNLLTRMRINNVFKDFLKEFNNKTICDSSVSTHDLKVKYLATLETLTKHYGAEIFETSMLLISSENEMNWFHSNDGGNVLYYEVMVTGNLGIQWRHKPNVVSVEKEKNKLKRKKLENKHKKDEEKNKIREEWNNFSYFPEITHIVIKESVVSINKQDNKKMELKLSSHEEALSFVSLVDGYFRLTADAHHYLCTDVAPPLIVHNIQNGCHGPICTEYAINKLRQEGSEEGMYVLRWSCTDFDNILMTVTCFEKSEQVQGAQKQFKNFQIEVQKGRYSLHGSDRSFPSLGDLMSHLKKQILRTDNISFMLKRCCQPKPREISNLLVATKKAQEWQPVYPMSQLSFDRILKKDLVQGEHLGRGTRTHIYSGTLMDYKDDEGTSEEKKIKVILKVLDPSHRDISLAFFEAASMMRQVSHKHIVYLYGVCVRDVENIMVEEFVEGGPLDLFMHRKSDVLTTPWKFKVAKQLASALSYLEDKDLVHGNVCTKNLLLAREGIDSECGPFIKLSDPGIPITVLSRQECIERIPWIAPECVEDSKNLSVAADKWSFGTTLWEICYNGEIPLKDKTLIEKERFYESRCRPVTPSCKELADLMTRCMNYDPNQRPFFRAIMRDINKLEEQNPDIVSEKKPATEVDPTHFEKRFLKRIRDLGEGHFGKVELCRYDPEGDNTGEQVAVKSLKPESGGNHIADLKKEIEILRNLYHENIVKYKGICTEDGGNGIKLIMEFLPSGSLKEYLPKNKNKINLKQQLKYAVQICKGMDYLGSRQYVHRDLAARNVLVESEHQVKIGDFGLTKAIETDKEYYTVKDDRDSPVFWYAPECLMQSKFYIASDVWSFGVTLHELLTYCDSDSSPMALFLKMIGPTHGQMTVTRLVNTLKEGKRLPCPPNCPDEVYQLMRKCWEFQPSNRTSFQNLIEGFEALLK", "experiment": "IC50 evaluation assay on JAK1 kinase inhibition (Caliper)", "conditions": "adenosine triphosphate at Km; 1 hour at 28° C.; average of two tests; read-out: IC50 (nM) inhibiting JAK 1 kinase", "procedure": "1. The compound was dissolved in 100% DMSO, diluted into solutions with appropriate concentration gradients with water according to experimental requirement, and added to a 384-well plate.\n2. JAK2 kinase (Carna, Cat. No. 08-045, Lot. No. 07CBS-1927) and JAK3 kinase (Carna, Cat. No. 08-046, Lot. No. 08CBS-0371) were diluted to the optimum concentration with the following buffer solution: 50 mM HEPES, pH 7.5, 0.0015% Brij-35, 2 mM DTT. JAK1 kinase (Carna, Cat. No. 08-144, Lot. No. 11CBS-0144D) was diluted to the optimum concentration with the following buffer solution: 25 mM HEPES pH 7.5, 0.01% Brij-35, 2 mM DTT, 0.01M Triton. Transfer to the 384-well plate and incubated with the compound for a period of time.\n3. […] The substrate of JAK1 was diluted to the optimum concentration with the following buffer: 25 mM HEPES, pH 7.5, 0.01% Brij-35, 10 mM MgCl2, 0.01M Triton, adenosine triphosphate at Km. Add to the 384-well plate to initiate there action and react for 1 hour at 28° C.\n4. 1 Eq. of sulfuric acid solution was added to terminate the reaction, the conversion rate was read with Caliper Reader. The inhibition rate was calculated as the average of two tests."}}, "data": [{"smiles": "COc1cc(F)ccc1-c1c(C)sc2cnc(Nc3cnn(C4CCNCC4)c3)nc12", "note": "[Compound 31, N-[7-(4-fluoro-2-methoxyphenyl)-6-methylthieno[3,2-d]pyrimidinyl-2-yl]-1-(piperidinyl-4-yl)-1H-pyrazol-4-amine]", "values": [{"measurement": "IC50", "setting": "FGFR1 kinase", "result": 5.1, "unit": "nM"}, {"measurement": "IC50", "setting": "FLT3 kinase (FLT3-WT)", "result": 0.28, "unit": "nM"}]}, {"smiles": "COc1cc(F)ccc1-c1c(C)sc2cnc(Nc3cnn(C4CCN(CCO)CC4)c3)nc12", "note": "[Compound 34, 2-[4-(4-{[7-(4-fluoro-2-methoxyphenyl)-6-methylthieno[3,2-d]pyrimidinyl-2-yl]amino}-1H-pyrazol-1-yl)-piperidinyl-1-yl]-1-ethanol]", "values": [{"measurement": "IC50", "setting": "JAK1 kinase", "result": 5.6, "unit": "nM"}, {"measurement": "IC50", "setting": "FGFR1 kinase", "result": 3.8, "unit": "nM"}, {"measurement": "IC50", "setting": "FLT3 kinase (FLT3-WT)", "result": "< 5", "unit": "nM"}]}]}
